{
  "source": "patent EP4813989A1",
  "about": "“CRYSTAL, PHARMACEUTICAL COMPOSITION, PREPARATION METHOD THEREFOR, AND USE THEREOF” (TYK Medicines, Inc., priority 2023, dated 2025)",
  "type_in_all_cases": "physicochemical",
  "key": {"[1]": {"assay": "Stability study of tablets (40°C/75%RH): related substances", "conditions": "condition N/A", "method": "The inventors produced tablet 1 (40 mg) and the tablet 2 (10 mg) according to the formulations in Example 1 and Example 2. The above samples were stored under conditions of 40°C/75%RH (open), 40°C/75%RH (sealed), and 40°C/75%RH (sealed+1 g desiccant) to investigate dissolutions and related substances."}, "[2]": {"assay": "pH-dependent solubility study", "conditions": "increasing with rising pH", "from_the_text": "Following oral administration, the drug can be absorbed at multiple different sites along the gastrointestinal tract (including via the stomach, duodenum, jejunum, ileum, and colon). There is a significant pH change between the stomach (pH 1-3.5) and the small intestine (pH 4-8), resulting in different pH conditions at each absorption site. […] In dissolution studies, it was observed that the sink condition can be satisfied in pH 6.8 medium supplemented with SDS."}, "[3]": {"assay": "Solid form stability on standing (XRD/PLM)", "from_the_text": "The resulting solid sample was subjected to a corresponding characterization test. An XRD pattern of the sample can be seen in FIG. 8.\nA crystal form E sample was obtained by suspending and stirring the amorphous sample prepared in Example 2 in a 1,4-dioxane/n-heptane solvent system at room temperature. XRD results of the sample can be seen in FIG. 9. […] On this basis, it was inferred that the crystal form E was a metastable crystal form.\nXRD results of the sample can be seen in FIG. 17.\nXRD results of the sample can be seen in FIG. 20. TGA/DSC results can be seen in FIG. 21. […] An ^1H NMR spectrum of the crystal form D was obtained by a test in DMSO-d6, and no obvious solvent residue was observed. […] Based on nuclear magnetic resonance data and heating test results of the sample, it was inferred that the crystal form D was a hydrate crystal form."}, "[4]": {"conditions": "listed as Active pharmaceutical ingredient^*2"}},
  "data": [
    {"smiles": "C[C@@H](Nc1ccn2ncc(C3=NOC(C)(C)N3)c2n1)c1cc(F)cc(F)c1F.O", "note": "[Active pharmaceutical ingredient]", "values": [
      {"measurement": "Individual impurity (RRT) 0.56", "setting": "[1]", "result": "<0.05", "unit": "%"},
      {"measurement": "Individual impurity (RRT) 0.66/ 0.67/ 0.69/ 0.70", "setting": "[1]", "result": 0.22, "unit": "%"},
      {"measurement": "Individual impurity (RRT) 0.71/ 0.72/ 0.73/ 0.74", "setting": "[1]", "result": 0.18, "unit": "%"},
      {"measurement": "Individual impurity (RRT) 0.91", "setting": "[1]", "result": "<0.05", "unit": "%"},
      {"measurement": "Individual impurity (RRT) 1.02", "setting": "[1]", "result": 0.27, "unit": "%"},
      {"measurement": "Individual impurity (RRT) 1.05/ 1.06", "setting": "[1]", "result": 0.07, "unit": "%"},
      {"measurement": "Individual impurity (RRT) 1.07/ 1.08", "setting": "[1]", "result": 0.18, "unit": "%"},
      {"measurement": "Individual impurity (RRT) 1.14", "setting": "[1]", "result": "<0.05", "unit": "%"},
      {"measurement": "Total impurities", "setting": "[1]", "result": 0.92, "unit": "%"},
      {"measurement": "Individual impurity (RRT) 0.71/ 0.72/ 0.73/ 0.74", "setting": "[1]; [4]", "result": 0.19, "unit": "%"},
      {"measurement": "Individual impurity (RRT) 1.02", "setting": "[1]; [4]", "result": 0.32, "unit": "%"},
      {"measurement": "Individual impurity (RRT) 1.07/ 1.08", "setting": "[1]; [4]", "result": 0.19, "unit": "%"},
      {"measurement": "Total impurities", "setting": "[1]; [4]", "result": 0.99, "unit": "%"}
    ]},
    {"smiles": "C[C@@H](Nc1ccn2ncc(C3=NOC(C)(C)N3)c2n1)c1cc(F)cc(F)c1F", "note": "[TY-2136b, (R)-3-(5,5-dimethyl-4,5-dihydro-1,2,4-oxadiazol-3-yl)-N-(1-(2,3,5-trifluorophenyl)ethyl)pyrazolo[1 ,5-a]pyrimidin-5-amine]", "values": [
      {"measurement": "solubility", "setting": "[2]", "result": "generally low"}
    ]},
    {"smiles": "C[C@@H](Nc1ccn2ncc(C3=NOC(C)(C)N3)c2n1)c1cc(F)cc(F)c1F", "note": "[crystal form B]", "values": [
      {"measurement": "Solid form stability", "setting": "[3]; room humidity (17.3%RH), same day", "result": "rapidly transformed into a crystal form C"}
    ]},
    {"smiles": "C[C@@H](Nc1ccn2ncc(C3=NOC(C)(C)N3)c2n1)c1cc(F)cc(F)c1F", "note": "[crystal form D]", "values": [
      {"measurement": "Solid form stability", "setting": "[3]; heating to 120°C and cooling to room temperature", "result": "transformed into an amorphous form"},
      {"measurement": "Crystallinity", "setting": "[3]; standing sealed at room temperature for 2 days", "result": "significantly reduced"}
    ]}
  ]
}
